Results as given in ChEMBL document CHEMBL6083204, “Synthesis of a celastrol derivative as a cancer stem cell inhibitor through regulation of the STAT3 pathway for treatment of ovarian cancer” (RSC Med Chem, 2024).
Activity calls are given as the source filed them. No cut-off for these calls is given here.

How the values were obtained:
A2780 [1] = assay: Induction of cell cycle arrest in human A2780 cells assessed as reduction of CDK2 expression at 0.2 uM incubated for 24 hrs by flow cytometry (reference value: 92.5 %); type: functional; parameters: scale not given: the % may be the effect or the level left
SK-OV-3 [2] = assay: Induction of cell cycle arrest in human SK-OV-3 cells assessed as accumulation of cells at G0/G1 phase at 0.2 uM incubated for 24 hrs by BrdU staining based flow cytometry (reference value: 59.8 %); type: functional
SK-OV-3 [3] = assay: Antitumor activity against human SK-OV-3 cells xenografted in BALB/c mouse assessed as reduction in tumor weight at 5 mg/kg,ip administrated for 21 consecutive days; type: functional, organism-based
A2780 [4] = assay: Antiproliferative activity against human A2780 cells assessed as decrease in CD44 positive CD24 negative cells expression at 0.4 uM incubated for 24 hrs by FITC staining based flow cytometry (reference value: 28.13 %); type: functional; parameters: scale not given: the % may be the effect or the level left
SK-OV-3 [5] = assay: Inhibition of cell migration in human SK-OV-3 cells assessed as downregulation of FAK expression at 0.1 to 0.4 uM incubated for 24 hrs by Western blotting analysis; type: functional, cell-based; settings: dose 0.1-0.4 µM
SK-OV-3 [6] = assay: Induction of cell cycle arrest in human SK-OV-3 cells assessed as accumulation of cells at G0/G1 phase at 0.8 uM incubated for 24 hrs by BrdU staining based flow cytometry (reference value: 59.8 %); type: functional
SK-OV-3 [7] = assay: Inhibition of human SK-OV-3 cells spheroid formation assessed as reduction in spheroid number at 0.1 to 0.4 uM incubated for 10 days by inverted microscopic analysis; type: functional, cell-based; settings: dose 0.1-0.4 µM, time 10.0 day
SK-OV-3 [8] = assay: Antitumor activity against human SK-OV-3 cells xenografted in BALB/c mouse assessed as reduction in tumor weight at 2 mg/kg,ip administrated for 21 consecutive days; type: functional, organism-based
SK-OV-3 [9] = assay: Induction of apoptosis in human SK-OV-3 cells assessed as late apoptotic cells at 0.2 uM incubated for 24 hrs by Annexin V-FITC/7-AAD staining based flow cytometry (reference value: 3.7 %); type: functional
SK-OV-3 [10] = assay: Antiproliferative activity against human SK-OV-3 cells assessed as decrease in ALDH positive cells at 0.2 uM incubated for 24 hrs by ALDEFLUOR staining based flow cytometry (reference value: 3.83 %); type: functional; parameters: scale not given: the % may be the effect or the level left
SK-OV-3 [11] = assay: Induction of cell cycle arrest in human SK-OV-3 cells assessed as accumulation of cells at S phase at 0.4 uM incubated for 24 hrs by BrdU staining based flow cytometry (reference value: 33.6 %); type: functional
SK-OV-3 [12] = assay: Antitumor activity against human SK-OV-3 cells xenografted in BALB/c mouse assessed as reduction in number of tumor cells at 2 to 5 mg/kg,ip administrated for 21 consecutive days by hematoxylin and eosin staining based assay; type: functional, organism-based; settings: dose 2-5 mg/kg
A2780 [13] = assay: Induction of apoptosis in human A2780 cells assessed as viable cells at 0.4 uM incubated for 24 hrs by Annexin V-FITC/7-AAD staining based flow cytometry (reference value: 95 %); type: functional; settings: read-out: Activity
A2780 [14] = assay: Induction of apoptosis in human A2780 cells assessed as late apoptotic cells at 0.4 uM incubated for 24 hrs by Annexin V-FITC/7-AAD staining based flow cytometry (reference value: 2.1 %); type: functional
[15] = Toxicity in BALB/c mouse xenografted with human SK-OV-3 cells assessed as pathological change in kidney at 2 to 5 mg/kg,ip administrated for 21 consecutive days by hematoxylin and eosin staining based assay; type: organism-based; settings: in vivo, dose 2-5 mg/kg
SK-OV-3 [16] = assay: Antitumor activity against human SK-OV-3 cells xenografted in BALB/c mouse assessed as reduction in tumor volume at 5 mg/kg,ip administrated for 21 consecutive days relative to control; type: functional; parameters: scale not given: the % may be the effect or the level left
SK-OV-3 [17] = assay: Induction of cell cycle arrest in human SK-OV-3 cells assessed as reduction of CDK4 expression at 0.2 uM incubated for 24 hrs by flow cytometry (reference value: 66.8 %); type: functional; parameters: scale not given: the % may be the effect or the level left
[18] = molecular target: Signal transducer and activator of transcription 3 (Homo sapiens) (UniProt P40763); assay: Inhibition of STAT3 in human A2780 cells assessed as downregulation of cytoplasmic STAT3 expression at 0.2 uM incubated for 24 hrs by Hoechst33342 staining based immunofluorescence assay; type: cell-based
[19] = molecular target: Signal transducer and activator of transcription 3 (Homo sapiens) (UniProt P40763); assay: Inhibition of STAT3 in human A2780 cells assessed as downregulation of STAT3 expression in nuclei at 0.2 uM incubated for 24 hrs by Hoechst33342 staining based immunofluorescence assay; type: cell-based
SK-OV-3 [20] = assay: Antiproliferative activity against human SK-OV-3 cells assessed as decrease in ALDH positive cells at 0.4 uM incubated for 24 hrs by ALDEFLUOR staining based flow cytometry (reference value: 3.83 %); type: functional; parameters: scale not given: the % may be the effect or the level left
[21] = molecular target: Signal transducer and activator of transcription 3 (Homo sapiens) (UniProt P40763); assay: Inhibition of STAT3 in human SK-OV-3 cells assessed as downregulation of STAT3 phosphorylation at Tyr705 residue in nuclei at 0.2 uM incubated for 24 hrs by Hoechst33342 staining based immunofluorescence assay; type: cell-based
A2780 [22] = assay: Induction of cell cycle arrest in human A2780 cells assessed as accumulation of cells at G0/G1 phase at 0.8 uM incubated for 24 hrs by BrdU staining based flow cytometry (reference value: 42.4 %); type: functional
A2780 [23] = assay: Induction of apoptosis in human A2780 cells assessed as increase in caspase-8 activity at 0.2 uM incubated for 24 hrs by flow cytometry (reference value: 1.2 %); type: functional
Mitochondrial membrane = assay: Induction of mitochondrial membrane potential loss in human SK-OV-3 cells at 0.1 uM incubated for 24 hrs by JC-1 staining based flow cytometry (reference value: 73.6 %)
[24] = molecular target: Signal transducer and activator of transcription 3 (Homo sapiens) (UniProt P40763); assay: Inhibition of STAT3 in human SK-OV-3 cells assessed as downregulation of cytoplasmic STAT3 phosphorylation at Tyr705 residue at 0.2 uM incubated for 24 hrs by Hoechst33342 staining based immunofluorescence assay; type: cell-based
A2780 [25] = assay: Induction of cell cycle arrest in human A2780 cells assessed as accumulation of cells at G0/G1 phase at 0.2 uM incubated for 24 hrs by BrdU staining based flow cytometry (reference value: 42.4 %); type: functional
[26] = molecular target: Tyrosine-protein kinase JAK1 (Homo sapiens) (UniProt P23458); assay: Inhibition of JAK1 in human SK-OV-3 cells assessed as downregulation of JAK1 expression at 0.1 to 0.4 uM incubated for 24 hrs by Western blotting analysis; type: cell-based; settings: dose 0.1-0.4 µM
SK-OV-3 [27] = assay: Induction of cell cycle arrest in human SK-OV-3 cells assessed as reduction of CDK4 expression at 0.8 uM incubated for 24 hrs by flow cytometry (reference value: 66.8 %); type: functional; parameters: scale not given: the % may be the effect or the level left
A2780 [28] = assay: Induction of cell cycle arrest in human A2780 cells assessed as reduction of CDK4 expression at 0.4 uM incubated for 24 hrs by flow cytometry (reference value: 93.6 %); type: functional; parameters: scale not given: the % may be the effect or the level left
A2780 [29] = assay: Inhibition of cell migration in human A2780 cells assessed as reduction in number of migrated cells at 0.1 to 0.4 uM incubated for 24 hrs by crystal violet staining based transwell assay; type: functional; settings: dose 0.1-0.4 µM
[30] = Toxicity in BALB/c mouse xenografted with human SK-OV-3 cells assessed as pathological change in heart at 2 to 5 mg/kg,ip administrated for 21 consecutive days by hematoxylin and eosin staining based assay; type: organism-based; settings: in vivo, dose 2-5 mg/kg

Chain of Signal transducer and activator of transcription 3 (Homo sapiens) (P40763 whole entry): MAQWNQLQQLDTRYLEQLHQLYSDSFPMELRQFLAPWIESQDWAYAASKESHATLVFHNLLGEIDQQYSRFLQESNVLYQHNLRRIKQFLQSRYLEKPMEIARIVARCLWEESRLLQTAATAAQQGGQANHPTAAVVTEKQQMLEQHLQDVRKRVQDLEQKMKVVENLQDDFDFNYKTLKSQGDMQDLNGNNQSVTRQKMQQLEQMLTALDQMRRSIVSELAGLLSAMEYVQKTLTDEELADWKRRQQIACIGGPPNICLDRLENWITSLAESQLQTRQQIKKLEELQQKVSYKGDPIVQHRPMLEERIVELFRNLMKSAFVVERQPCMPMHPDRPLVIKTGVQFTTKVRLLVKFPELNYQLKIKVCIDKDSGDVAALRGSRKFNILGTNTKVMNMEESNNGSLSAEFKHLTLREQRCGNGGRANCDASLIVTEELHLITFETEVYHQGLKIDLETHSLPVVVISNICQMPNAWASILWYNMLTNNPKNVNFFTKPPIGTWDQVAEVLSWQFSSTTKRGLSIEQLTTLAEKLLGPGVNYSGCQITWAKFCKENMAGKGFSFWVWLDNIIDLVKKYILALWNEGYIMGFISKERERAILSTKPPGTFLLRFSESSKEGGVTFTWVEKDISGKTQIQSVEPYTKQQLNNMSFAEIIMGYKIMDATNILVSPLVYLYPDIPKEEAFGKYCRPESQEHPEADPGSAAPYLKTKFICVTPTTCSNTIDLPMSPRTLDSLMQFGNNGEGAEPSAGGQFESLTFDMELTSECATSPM
Chain of Tyrosine-protein kinase JAK1 (Homo sapiens) (P23458 whole entry): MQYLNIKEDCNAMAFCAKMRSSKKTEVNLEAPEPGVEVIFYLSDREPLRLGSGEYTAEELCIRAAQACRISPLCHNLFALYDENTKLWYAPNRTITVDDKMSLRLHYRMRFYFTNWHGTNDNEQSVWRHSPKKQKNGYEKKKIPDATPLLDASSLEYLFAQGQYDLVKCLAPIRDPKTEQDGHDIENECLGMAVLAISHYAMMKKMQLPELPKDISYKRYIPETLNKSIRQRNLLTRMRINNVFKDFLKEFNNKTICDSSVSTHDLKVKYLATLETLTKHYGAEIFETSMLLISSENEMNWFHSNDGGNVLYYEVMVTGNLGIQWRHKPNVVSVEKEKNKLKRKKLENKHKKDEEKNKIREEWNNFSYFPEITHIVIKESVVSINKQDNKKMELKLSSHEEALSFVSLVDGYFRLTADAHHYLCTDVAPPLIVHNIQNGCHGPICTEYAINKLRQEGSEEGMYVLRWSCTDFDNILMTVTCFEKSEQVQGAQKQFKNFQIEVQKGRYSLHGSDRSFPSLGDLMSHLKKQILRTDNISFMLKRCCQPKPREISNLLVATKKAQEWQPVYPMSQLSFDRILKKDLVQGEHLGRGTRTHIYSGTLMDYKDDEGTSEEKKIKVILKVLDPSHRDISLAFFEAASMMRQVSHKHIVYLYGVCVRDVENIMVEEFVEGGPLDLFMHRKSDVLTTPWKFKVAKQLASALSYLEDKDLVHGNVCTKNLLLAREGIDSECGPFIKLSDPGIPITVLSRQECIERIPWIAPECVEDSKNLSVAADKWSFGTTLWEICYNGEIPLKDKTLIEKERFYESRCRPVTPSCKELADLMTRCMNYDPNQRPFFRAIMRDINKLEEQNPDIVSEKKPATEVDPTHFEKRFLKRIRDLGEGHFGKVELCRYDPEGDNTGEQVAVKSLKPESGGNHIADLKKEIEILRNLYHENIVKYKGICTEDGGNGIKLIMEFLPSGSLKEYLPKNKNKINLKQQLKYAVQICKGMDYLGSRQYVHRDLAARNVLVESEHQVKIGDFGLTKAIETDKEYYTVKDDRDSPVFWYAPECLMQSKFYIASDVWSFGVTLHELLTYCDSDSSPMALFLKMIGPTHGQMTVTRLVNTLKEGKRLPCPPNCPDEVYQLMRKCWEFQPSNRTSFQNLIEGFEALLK

In the case of `CC1=C(O)C(=O)C=C2C1=CC=C1[C@@]2(C)CC[C@@]2(C)[C@@H]3C[C@](C)(C(=O)N4CCNCC4)CC[C@]3(C)CC[C@]12C`, the Activity (A2780 [1]) is reported as 89.6%, the Activity (SK-OV-3 [2]) is reported as 59.2% and the Activity (SK-OV-3 [3]) is reported as “Active; Showed Moderate Reduction Activity”. For the same molecule, the Activity (A2780 [4]) was 2.93%, the inhibition (SK-OV-3 [5]) was “Active” and the Activity (SK-OV-3 [6]) was 47.7%. For the same molecule, the inhibition (SK-OV-3 [7]) was “Active”, the Activity (SK-OV-3 [8]) was “Active” and the Activity (SK-OV-3 [9]) was 7.8%. For the same molecule, the Activity (SK-OV-3 [10]) was 2.07%, the Activity (SK-OV-3 [11]) was 42.9% and the Activity (SK-OV-3 [12]) was “Active”. For the same molecule, the viability at 0.4 µM (A2780 [13]) was 75.3%, the Activity (A2780 [14]) was 15% and the Activity [15] was “Non-toxic”. For the same molecule, the Activity (SK-OV-3 [16]) was 74.58%, the Activity (SK-OV-3 [17]) was 67% and the inhibition [18] was “Active; Showed Mild Inhibition Activity”. The inhibition [19] was “Active”, the Activity (SK-OV-3 [20]) was 1.3% and the inhibition [21] was “Active”. It also gave an Activity (A2780 [22]) of 70.5%, an Activity (A2780 [23]) of 1% and an Activity (Mitochondrial membrane) of 70.7%. The inhibition [24] was “Active; Showed Mild Inhibition Activity”, the Activity (A2780 [25]) was 53.7% and the inhibition [26] was “Active”. The Activity (SK-OV-3 [27]) was 29.8%, the Activity (A2780 [28]) was 17.2% and the inhibition (A2780 [29]) was “Active”. The Activity [30] was “Non-toxic”.
